Results: patent US8148099B2, “Process for determining S-nitrosothiols in biological fluids” (Universita' Di Pisa, priority 2006, dated 2012)

Columns and labels:
[1] = molecular target: T1, γ-glutamyltranspeptidase (GGT) (Homo sapiens, UniProt P19440); conditions: read-out: Km constant (Michaelis-Menten kinetic constant) of GGT; substance as substrate of GGT; cited from earlier work
[2] = molecular target: T1, γ-glutamyltranspeptidase (GGT); test: Decomposition kinetics of GSNO, absorbance at 334 nm (FIG. 1); assay type: biochemical
Protocol: GSNO has a absorption band at 334 nm. […] In FIG. 1 in particular, the decomposition kinetics is shown of 50 uM GSNO with GGT 525 mU/mL added at the time t=0. In ordinates the absorbance at 334 nm is shown. […]
At the addition of GGT 525 mU/mL the decrease is observed of the absorbance at 334 nm that indicates the decomposition of GSNO (curve a of FIG. 1). GSNO is quantitatively decomposed, in the adopted operative conditions, in 450 sec.

[3] = blood; cited from earlier work

T1 sequence (P19440 whole entry, species assumed): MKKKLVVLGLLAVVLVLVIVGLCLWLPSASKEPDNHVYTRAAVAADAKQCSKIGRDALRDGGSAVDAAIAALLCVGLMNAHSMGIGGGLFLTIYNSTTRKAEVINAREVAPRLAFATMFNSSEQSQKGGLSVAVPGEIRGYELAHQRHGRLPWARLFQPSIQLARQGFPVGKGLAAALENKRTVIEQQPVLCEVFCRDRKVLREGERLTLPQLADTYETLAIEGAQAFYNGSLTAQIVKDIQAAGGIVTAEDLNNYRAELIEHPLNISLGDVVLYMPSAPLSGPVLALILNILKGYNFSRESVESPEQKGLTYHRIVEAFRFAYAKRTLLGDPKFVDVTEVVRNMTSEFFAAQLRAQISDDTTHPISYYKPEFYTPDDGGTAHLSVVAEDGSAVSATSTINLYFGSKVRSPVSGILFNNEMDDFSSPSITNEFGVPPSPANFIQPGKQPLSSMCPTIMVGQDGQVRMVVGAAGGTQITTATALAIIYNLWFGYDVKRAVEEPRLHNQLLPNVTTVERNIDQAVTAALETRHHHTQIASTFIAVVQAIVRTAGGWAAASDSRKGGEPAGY

time for quantitative decomposition of GSNO ([2]; 50 uM GSNO, GGT 525 mU/mL, phosphate buffer 0.1 M pH 8.0, GlyGly 4.5 mM, Cu(SO4) 100 uM (curve a)) [s] | change of absorbance at 334 nm ([2]; adding only 50 uM of CuSO4 (curve b)) | SMILES | Km [1] [µM] | half life in the hematic area [3]
– | – | N[C@@H](CCC(=O)N[C@@H](CS)C(=O)NCC(=O)O)C(=O)O [GSH, reduced glutathione] | 5 to 10 | –
450 | no decrease is observed | N[C@@H](CCC(=O)N[C@@H](CSN=O)C(=O)NCC(=O)O)C(=O)O [GSNO, S-nitrosoglutathione] | 28 | –
– | – | [N]=O [NO, Nitric oxide] | – | about 2 ms
